Source: US9394285B2 (Pfizer Inc., priority 2013, dated 2016)

Key:
[1] = target: human AMPK (full-length γ1, β1 and α1 subunits) (Homo sapiens (Human), UniProt Q13131+Q9Y478); test: AMPK in vitro biochemical assay (33P-based, SAMS peptide, PP2A dephosphorylation); conditions: for EC50: activation of phosphorylated AMPK, 33P-ATP, SAMS peptide, PP2A treatment, 4-parameter fit; for Emax: read-out: Maximum
How it was run: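 Phosphorylated full-length α1β1γ1 AMPK (E. coli-expressed, His-purified, gel-filtered) preincubated 15 min RT with compound in HEPES pH 7.5, 10 mM MgCl2 buffer, then PP2A added to dephosphorylate pThr172.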

[2] = counts as % of positive control wells (enzyme, allosteric activator or AMP, PP2A and substrate)

Chain of human AMPK (full-length γ1, β1 and α1 subunits) (Q13131 whole entry): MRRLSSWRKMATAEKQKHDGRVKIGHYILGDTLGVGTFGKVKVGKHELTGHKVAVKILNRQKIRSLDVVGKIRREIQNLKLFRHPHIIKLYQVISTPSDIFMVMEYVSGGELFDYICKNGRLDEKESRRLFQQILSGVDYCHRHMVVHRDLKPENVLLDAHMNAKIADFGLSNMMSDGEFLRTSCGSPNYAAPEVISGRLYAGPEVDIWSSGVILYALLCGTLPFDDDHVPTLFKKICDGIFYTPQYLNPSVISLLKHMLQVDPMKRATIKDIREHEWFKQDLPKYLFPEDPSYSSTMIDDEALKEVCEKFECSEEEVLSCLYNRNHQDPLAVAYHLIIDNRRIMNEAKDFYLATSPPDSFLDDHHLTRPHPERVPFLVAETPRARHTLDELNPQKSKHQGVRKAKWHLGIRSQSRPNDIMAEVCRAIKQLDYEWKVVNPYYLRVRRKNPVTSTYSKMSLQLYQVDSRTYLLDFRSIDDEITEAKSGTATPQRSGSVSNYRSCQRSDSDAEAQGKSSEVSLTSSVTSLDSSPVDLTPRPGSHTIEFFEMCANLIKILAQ
Chain of human AMPK (full-length γ1, β1 and α1 subunits) (Q9Y478 whole entry): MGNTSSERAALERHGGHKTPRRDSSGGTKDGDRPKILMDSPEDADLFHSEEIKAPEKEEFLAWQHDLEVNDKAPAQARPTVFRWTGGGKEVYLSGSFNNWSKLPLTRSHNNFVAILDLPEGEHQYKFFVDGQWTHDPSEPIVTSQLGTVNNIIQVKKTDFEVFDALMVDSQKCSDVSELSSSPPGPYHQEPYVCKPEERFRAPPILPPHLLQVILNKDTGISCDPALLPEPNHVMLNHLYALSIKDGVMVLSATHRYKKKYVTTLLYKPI
Chain of human AMPK (full-length γ1, β1 and α1 subunits) (P54619 whole entry partner): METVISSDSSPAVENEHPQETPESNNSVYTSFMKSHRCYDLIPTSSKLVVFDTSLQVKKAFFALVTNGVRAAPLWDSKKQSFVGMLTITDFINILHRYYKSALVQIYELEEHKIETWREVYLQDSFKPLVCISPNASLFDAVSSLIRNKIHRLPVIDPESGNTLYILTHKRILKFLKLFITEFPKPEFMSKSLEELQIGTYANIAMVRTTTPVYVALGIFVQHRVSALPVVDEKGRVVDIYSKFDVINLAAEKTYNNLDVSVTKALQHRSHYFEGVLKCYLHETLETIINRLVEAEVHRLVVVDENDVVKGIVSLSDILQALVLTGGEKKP

Structure (SMILES)	EC50 [1] [nM]	Emax [1, 2] [%]	melting point	Maximum [1, 2] [%]
O=C(O)c1c[nH]c2cc(Cl)c(-c3ccc(OCCCO)cc3)cc12 [Example 30, 6-chloro-5-[4-(3-hydroxypropoxy)phenyl]-1H-indole-3-carboxylic acid]	30	92	209.3 to 209.6 °C	
COc1ccc(-c2cc3c(S(=O)(=O)O)c[nH]c3cc2Cl)cc1 [Example 132, 6-Chloro-5-(4-methoxyphenyl)-1H-indole-3-sulfonic acid]	483	46	240 °C (dec.)	
O=C(O)c1n[nH]c2cc(F)c(-c3ccc(C4CCOCC4)cc3)cc12 [Example 130, 6-Fluoro-5-(4-(tetrahydro-2H-pyran-4-yl)phenyl)-1H-indazole-3-carboxylic acid]	305	100	295 °C	
N#Cc1cc2[nH]cc(C(=O)O)c2cc1-c1ccc(C2(CO)CC2)cc1 [Example 23, 6-cyano-5-{4-[1-(hydroxymethyl)cyclopropyl]phenyl}-1H-indole-3-carboxylic acid]	16	88	270.9 to 271.6 °C	
O=C(O)c1c[nH]c2cc(Cl)c(-c3ccc(OCCCN4CCOCC4=O)cc3)cc12 [Example 54, 6-chloro-5-{4-[3-(3-oxomorpholin-4-yl)propoxy]phenyl}-1H-indole-3-carboxylic acid]	32.5	74		
COc1cc(-c2cc3c(C(=O)O)c[nH]c3cc2Cl)ccc1[C@H]1C[C@H](O)C1 [Example 146, 6-chloro-5-[4-(trans-3-hydroxycyclobutyl)-3-methoxyphenyl]-1H-indole-3-carboxylic acid]	35.3	119		
CS(=O)(=O)NC(=O)c1c[nH]c2cc(Cl)c(-c3ccc(C4(O)CCC4)cc3)cc12 [Example 147, 6-chloro-5-[4-(1-hydroxycyclobutyl)phenyl]-N-(methylsulfonyl)-1H-indole-3-carboxamide]	10.1	132		
O=C(O)c1c[nH]c2cc(Cl)c(-c3ccc(N4CCCC4=O)cc3)cc12 [Example 64, 6-chloro-5-[4-(2-oxopyrrolidin-1-yl)phenyl]-1H-indole-3-carboxylic acid]	169	82		
COc1cc(C2(O)CCC2)ccc1-c1cc2c(C(=O)O)c[nH]c2cc1Cl [Example 62, 6-chloro-5-[4-(1-hydroxycyclobutyl)-2-methoxyphenyl]-1H-indole-3-carboxylic acid]	33.3	74		
CN(C)c1ncc(-c2cc3c(C(=O)O)c[nH]c3cc2Cl)cn1 [Example 73, 6-chloro-5-[2-(dimethylamino)pyrimidin-5-yl]-1H-indole-3-carboxylic acid]	790	118		
O=C(O)c1c[nH]c2cc(Cl)c(-c3ccc(OC4COC4)cc3)cc12 [Example 18, 6-chloro-5-[4-(oxetan-3-yloxy)phenyl]-1H-indole-3-carboxylic acid]	181	92		
COc1cc(-c2cc3c(C(=O)NS(C)(=O)=O)c[nH]c3cc2Cl)ccc1C(C)(C)CO [Example 177, 6-chloro-5-[4-(1-hydroxy-2-methylpropan-2-yl)-3-methoxyphenyl]-N-(methylsulfonyl)-1H-indole-3-carboxamide]	62.3	111		
O=C(O)c1n[nH]c2cc(Cl)c(-c3ccc(CO)cc3)cc12 [Example 111, 6-Chloro-5-(4-(hydroxymethyl)phenyl)-1H-indazole-3-carboxylic acid]	175	12		
O=C(O)c1c[nH]c2cc(F)c(-c3ccc(OCCO)cc3)c(F)c12 [Example 24, 4,6-difluoro-5-[4-(2-hydroxyethoxy)phenyl]-1H-indole-3-carboxylic acid]	252	91		
CC(=O)c1ccc(-c2cc3c(C(=O)O)n[nH]c3cc2Cl)cc1 [Example 105, 5-(4-Acetylphenyl)-6-chloro-1H-indazole-3-carboxylic acid]	122	84		
COc1nc(N2CCC(OC)C2)ccc1-c1cc2c(C(=O)O)c[nH]c2cc1Cl (stereo in doubt) [Example 176, 6-chloro-5-{2-methoxy-6-[(3S)-3-methoxypyrrolidin-1-yl]pyridin-3-yl}-1H-indole-3-carboxylic acid]	5.6	62.4		
O=C(O)c1c[nH]c2cc(Cl)c(-c3ccc(OCCN4CCOCC4)cc3)cc12 [Example 19, 6-chloro-5-{4-[2-(morpholin-4-yl)ethoxy]phenyl}-1H-indole-3-carboxylic acid]	383	96		
O=C(O)c1c[nH]c2cc(F)c(-c3ccc(C4CCCCO4)cc3)cc12 (single isomer, unassigned) [Example 171, 6-fluoro-5-[4-(tetrahydro-2H-pyran-2-yl)phenyl]-1H-indole-3-carboxylic acid]	32.9			69.2
